In US5079261A, “Use of lipoxin A4 and its derivatives as antagonists for slow-reacting substances of anaphylaxis” (Brigham and Women's Hospital, priority 1989, dated 1992):
“Also recorded” adds a separate entry of the source.

Tests used:
[1] = target: T1, mesangial cell LTD4 receptor (Rattus norvegicus, UniProt Q924T8); details: even at a 1000-fold excess concentration
T1 sequence (Q924T8 1-339): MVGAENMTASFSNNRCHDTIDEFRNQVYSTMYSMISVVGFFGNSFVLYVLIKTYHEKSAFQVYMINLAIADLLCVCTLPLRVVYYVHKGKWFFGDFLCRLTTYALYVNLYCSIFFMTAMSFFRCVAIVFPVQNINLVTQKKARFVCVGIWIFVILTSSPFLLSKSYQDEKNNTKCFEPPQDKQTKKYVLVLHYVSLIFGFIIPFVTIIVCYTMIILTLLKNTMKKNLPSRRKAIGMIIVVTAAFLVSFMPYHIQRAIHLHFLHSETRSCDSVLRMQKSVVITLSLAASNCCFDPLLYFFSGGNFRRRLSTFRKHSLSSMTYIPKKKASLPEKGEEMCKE
Protocol: Mesangial Cell Culture: Rat mesangial cells were isolated and cultured as described previously (Harris, R. C., et al., J. Clin. Invest. 82:1028-1039(1988). Briefly, kidneys were exicesed from two young Sprague-Dawly rats under sterile conditions, and the cortices removed, minced, and washed several times in Hank's Balanced Salt Solution, containing 10 mM HEPES pH 7.4, amphotericin (0.25 μg/ml), and gentamicin (50 μg/ml). The tissue was then passed through consecutive sterilized stainless mesh filters with pore sizes of 212 μm, 150 μm, and then onto the final mesh of 75 μm. The isolated glomeruli were harvested from the surface of the 75 μm. The isolated glomeruli were harvested from the surface of the 75 μm filter and washed twisce with the Hank's Media. The glomeruli were suspended in RPMI 1640 Medium with 15% Fetal Bovine Serum (Givco), penicillin (100 μ/ml) and streptomycin (100 μg/ml) (Gibco), plated into 100 mm cell culture petri dishes, and incubated at 37° C. in a humidified atmosphere of 95% air and 5% air and 5% CO2. Mesangial cell colonies were subcultured in 60 mm culture dishes, and experiments were carried out in cells from passages 2 to 12. […] Cells were routinely grown in RPMI-1640, supplemented with 20% fetal calf serum, penicillin 100 μ/ml, and streptomycin 100 μg/ml.
Binding studies were routinely performed at 4° C. […] The cells were then dissolved with 1.0 ml of 1.0 N NaOH, neutralized with HCl, dissolved in 10 ml of Aquasol (New England Nuclear, Boston, MA), and the bound radioactivity was determined using a scintillation counter (Beckman Instruments). […] Cell density was determined by counting cells from replicate wells, using a Coulter Counter ZBi (Coulter Electronics, Inc., Hialeah, Fla.).

LTD4 receptor [2] = details: cited from earlier work
rat mesangial cells = test: IP3 formation ([3H]-inositol labeled mesangial cells) in response to LTD4 or LXA4; type: cell-based; details: Mesangial cell, read-out: increase in [3H]-IP3 counts over controls
From the text: (§1) Statistical: ANOVA with Bonferroni modification for multiple pre-planned comparisons was used, within each group and between groups, to compare the changes in various whole kidney and microcirculatory indices which occurred from one period to another. In phosphoinositide generation studies, increases in [^3 H]-IP3 CPMs in agonist-treated cells were compared to vehicle-treated controls using upaired students t-test. Differences were considered significant at a p value ≤0.05. All values are reported as means ± SEM.
The isolated glomeruli were harvested from the surface of the 75 μm filter and washed twisce with the Hank's Media. […] Mesangial cell colonies were subcultured in 60 mm culture dishes, and experiments were carried out in cells from passages 2 to 12.
(§2) To label mesangial cells with [^3 H]-Inositol, cells grown to confluence in 60 mm culture dishes (10^6 cells/dish) were cultured in RPMI, supplemented with 10% dialyzed fetal calf serum and [^3 H]-inositol (1 μCi/ml) in a total incubation volume of 5 ml.
Reactions were terminated by the addition of cold 10% trichloroacetic acid (TCA), the supernatants subjected to ether extraction, and the aqueous phase titrated to neutral pH using 0.1 M Tris base. […] To ensure the reliability of the separation technique, the same methods for extraction and separation were applied to known amounts of [^3 H]-IP1, [^3 H]IP2, and [^3 H]-IP3 standards (New England Nuclear) mixed in a ratio of 3:2:1, respectively, and subjected to separation by HPLC.

[3] = intra-renal arterial LTD4 1 μg/kg/min; cited from earlier work
renal arterioles = details: rat, in vivo; cited from earlier work
HL-60 myeloid cells = details: DMSO-differentiated HL-60 cells; cited from earlier work
[4] = Renal function in vivo in anesthetized rats (AP, Hct, RPF, GFR) during intrarenal arterial infusion; parameters: species or system male Munich-Wistar rats; details: for Mean percent fall in RPF / Mean percent fall in GFR: without LXA4
From the text: as §1
Inulin and para-aminohippurate (PAH) clearances Were used to measure GFR and effective RPF. A needle was placed at the take-off of the left renal artery through which a maintenance infusion of 0.9% NaCl at a rate of 0.05 ml/min was initiated. […] Two experimental groups
Group I (n=14). First period: Clearances were performed during vehicle infusion.
Group II (n=12). First period: Clearances were performed during vehicle infusion.

mesangial cells = details: cited from earlier work
LTD4 receptor [5] = test: Inhibition of LTD4-induced IP3 formation in mesangial cells; type: cell-based, rat
Protocol: Mesangial Cell Culture: Rat mesangial cells were isolated and cultured as described previously (Harris, R. C., et al., J. Clin. Invest. 82:1028-1039(1988). Briefly, kidneys were exicesed from two young Sprague-Dawly rats under sterile conditions, and the cortices removed, minced, and washed several times in Hank's Balanced Salt Solution, containing 10 mM HEPES pH 7.4, amphotericin (0.25 μg/ml), and gentamicin (50 μg/ml). The tissue was then passed through consecutive sterilized stainless mesh filters with pore sizes of 212 μm, 150 μm, and then onto the final mesh of 75 μm. The isolated glomeruli were harvested from the surface of the 75 μm. The isolated glomeruli were harvested from the surface of the 75 μm filter and washed twisce with the Hank's Media. The glomeruli were suspended in RPMI 1640 Medium with 15% Fetal Bovine Serum (Givco), penicillin (100 μ/ml) and streptomycin (100 μg/ml) (Gibco), plated into 100 mm cell culture petri dishes, and incubated at 37° C. in a humidified atmosphere of 95% air and […] 5% CO2. Mesangial cell colonies were subcultured in 60 mm culture dishes, and experiments were carried out in cells from passages 2 to 12. The criteria used to establish the identify of mesangial cells were as described previously (Harris, R. C., et al., J. Clin. Invest. 82:1028-1039 (1988)). Cells were routinely grown in RPMI-1640, supplemented with 20% fetal calf serum, penicillin 100 μ/ml, and streptomycin 100 μg/ml. […] All eicosanoids were stored under argon at -70° C. in methanol and their purity and quantity verified periodically by ultraviolet scanning and high pressure liquid chromatography (Serhan, C. N. et al., J. Biol. Chem. 261:16340 (1986)).
as §2
Reactions were terminated by the addition of cold 10% trichloroacetic acid (TCA), the supernatants subjected to ether extraction, and the aqueous phase titrated to neutral pH using 0.1 M Tris base. [^3 H]-IP1, [^3 H]-IP2, and [^3 H]-IP3 in the aqueous phase were separated and quantitated by anion exchange column chromatography, using the method of Berridge et al. (Berridge, M. J., Biochem. J. 220:345-360 (1984)). To ensure the reliability of the separation technique, the same methods for extraction and separation were applied to known amounts of [^3 H]-IP1, [^3 H]IP2, and [^3 H]-IP3 standards (New England Nuclear) mixed in a ratio of 3:2:1, respectively, and subjected to separation by HPLC. The latter was performed using established methodology described previously (Cunha-Melo, J. R., et al., J. Biol. Chem. 262:11455-11463 (1987)).

[6] = target: T1, mesangial cell LTD4 receptor; parameters: endogenous in cells; host or cells: primary glomerular mesangial cells of young Sprague-Dawley rats, passages 2 to 12; details: other studies of the inventors; cited from earlier work
LTD4/ LTE4 receptors = details: in vivo and in vitro; cited from earlier work
LTD4 receptor [7] = test: Inhibition of LXA4-induced IP3 formation in mesangial cells; type: cell-based, rat
Protocol: Mesangial Cell Culture: Rat mesangial cells were isolated and cultured as described previously (Harris, R. C., et al., J. Clin. Invest. 82:1028-1039(1988). Briefly, kidneys were exicesed from two young Sprague-Dawly rats under sterile conditions, and the cortices removed, minced, and washed several times in Hank's Balanced Salt Solution, containing 10 mM HEPES pH 7.4, amphotericin (0.25 μg/ml), and gentamicin (50 μg/ml). The tissue was then passed through consecutive sterilized stainless mesh filters with pore sizes of 212 μm, 150 μm, and then onto the final mesh of 75 μm. The isolated glomeruli were harvested from the surface of the 75 μm. […] All eicosanoids were stored under argon at -70° C. in methanol and their purity and quantity verified periodically by ultraviolet scanning and high pressure liquid chromatography (Serhan, C. N. et al., J. Biol. Chem. 261:16340 (1986)). […]
Reactions were terminated by the addition of cold 10% trichloroacetic acid (TCA), the supernatants subjected to ether extraction, and the aqueous phase titrated to neutral pH using 0.1 M Tris base. [^3 H]-IP1, [^3 H]-IP2, and [^3 H]-IP3 in the aqueous phase were separated and quantitated by anion exchange column chromatography, using the method of Berridge et al. (Berridge, M. J., Biochem. J. 220:345-360 (1984)). […]

[8] = Group I, period 2, A: LTD4 0.5 μg/kg/min, n=4
[9] = Group I, period 2, B: LTD4 7 μg/kg/min, n=3
[10] = Group I, period 2, C: LTD4 14 μg/kg/min, n=3
[11] = Group I, period 2, D: LTD4 20 μg/kg/min, n=4
[12] = LTD4 7.0 μg/kg/min, p<0.05 vs baseline
[13] = LTD4 14.0 μg/kg/min, p<0.05 vs baseline
[14] = LTD4 20.0 μg/kg/min, p<0.05 vs baseline
[15] = 100-fold concentrations of SKF 104353

CCCCC[C@H](O)/C=C/C=C\C=C\C=C\[C@H](O)[C@@H](O)CCCC(=O)O [6S-LXA4, 5S,6S,15S,trihydroxy-7,9,13-trans-11-cis-eicosatetraenoic acid, reference compound]
Competition for [3H]-LTD4 at excess concentration [1]: filed to compete for [^3 H]-LTD4

CCCc1c(OCC(O)COc2ccc3c(=O)cc(C(=O)O)oc3c2CCC)ccc(C(C)=O)c1O (stereo not drawn) [FPL-55712]
Duration of action (LTD4 receptor [2]): short-acting

CCCCC/C=C\C\C=C/C=C/C=C/[C@@H](SC[C@H](N)C(=O)NCC(=O)O)[C@@H](O)CCCC(=O)O [LTD4, reference compound]
activation at 0.01 µM (rat mesangial cells): 146 ± 20% | activation at 0.05 µM (rat mesangial cells): 106 ± 13% | Systemic hemodynamic alterations [3]: elevation in systemic arterial pressure and a progressive loss of plasma volume | Kf and GFR in vivo (renal arterioles): markedly reduces | Intracellular Ca2+ concentrations (HL-60 myeloid cells): increase intracellular Ca^2+ concentrations | GFR and RPF change (in words) ([4]; Group I, LTD4 0.5-20.0 μg/kg/min): dose-dependent reductions | AP [4, 8]: 127 ± 9 mmHg | GFR [4, 8]: 0.81 ± 0.11 mL/min | Hct [4, 8]: 48.3 ± 1.2 Vol./dl | RPF [4, 8]: 3.41 ± 0.50 mL/min | AP [4, 9]: 124 ± 6 mmHg | GFR [4, 9]: 0.84 ± 0.15 mL/min | Hct [4, 9]: 53.0 ± 1.5 Vol./dl | RPF [4, 9]: 2.76 ± 0.59 mL/min | AP [4, 10]: 148 ± 5 mmHg | GFR [4, 10]: 0.32 ± 0.10 mL/min | Hct [4, 10]: 59.2 ± 2.2 Vol./dl | RPF [4, 10]: 1.51 ± 0.44 mL/min | AP [4, 11]: 128 ± 4 mmHg | GFR [4, 11]: 0.34 ± 0.80 mL/min | Hct [4, 11]: 55.0 ± 1.8 Vol./dl | RPF [4, 11]: 1.20 ± 0.15 mL/min | Mean percent fall in RPF ([4]; LTD4 0.5 μg/kg/min): 24% | Mean percent fall in GFR ([4]; LTD4 0.5 μg/kg/min, p<0.05 vs baseline): 27% | Mean percent fall in GFR [4, 12]: 25% | Mean percent fall in RPF [4, 12]: 40% | Mean percent fall in GFR [4, 13]: 70% | Mean percent fall in RPF [4, 13]: 65% | Mean percent fall in GFR [4, 14]: 73% | Mean percent fall in RPF [4, 14]: 70% | Contraction of mesangial cells in culture (mesangial cells): contracts mesangial cells in culture

O=C(O)CCS[C@H](c1ccccc1CCCCCCCCc1ccccc1)[C@@H](O)C(=O)O [SKF 104353]
Inhibition of IP3 formation in response to LTD4 (FIG. 2) (LTD4 receptor [5]; [15]): complete abolition | Inhibition of LTD4-induced stimulation of [3H]-IP3 formation (LTD4 receptor [5]; 100-fold excess over ligand, LTD4 10 and 50 nM (n=3 each)): total abrogation | Inhibition of [3H]-LTD4 binding to its mesangial cell binding site [6]: inhibit [^3 H]-LTD4 binding | Agonist activity (LTD4/ LTE4 receptors): devoid of agonist activity | Inhibition of IP3 formation in response to LXA4 (FIG. 2) (LTD4 receptor [7]; [15]): complete abolition | Inhibition of LXA4-induced IP3 formation (LTD4 receptor [7]; SKF 104353 100 nM (n=3)): abrogated; also recorded: total abrogation
